# Measured values taken from patent US5801182A, “Amine substituted compounds” (Cell Therapeutics, Inc., priority 1995, dated 1998).
# Like-named read-outs stand apart in the source and are kept apart here.
# Legend:
# [1] = system: CFU-GM in mouse femoral marrow; conditions: in vivo
# Description: Mouse spleen conditioned-medium, at a concentration of 2%, was used in this assay. The medium and semi-solid culture mix were procured from Stem Cell Technologies in Vancouver, BC.
# [2] = system: polymorphonuclear leukocytes; conditions: U.S. Pat. No. 4,636,507; cited from earlier work
# [3] = system: tumor necrosis factor, TNF; conditions: cited from earlier work
# PAPH = PAPH inhibition / DAG production in TNF-stimulated human mesangial cells; format: cell-based; conditions: specific activation pathway that does not involve PI
# Text: These inventive compounds and pharmaceutical compositions are capable of, among other things, inhibiting subspecies of LPAAT and PAPH enzymes with substrate specificity for intermediates with 1,2-diunsaturated and 1-alkyl, 2-unsaturated subspecies. […] In contrast, the inventive compounds affect that subset of PAPH and LPAAT relating to substrates with unsaturated fatty acids other than arachidonate in the sn-2 position, not the housekeeping forms of these enzymes that serve the PI pathway.
# Balb/3T3 cells [4] = assay: Viability (cytotoxicity) assay of Balb/3T3 cells with BCECF; format: cell-based; conditions: at the concentrations at which the compounds inhibit proliferation; vs control value of 100%; FIGS. 3 and 5
# Description: In conjunction with the Balb/3T3 proliferation assay, a related viability assay was conducted to assess the cytotoxicity of compounds which inhibit proliferation in this system. The assay protocol was identical to that performed above except that tritiated thymidine was not added after the 24 hour incubation with PDGF. In this cytotoxicity assay, after incubating the cells, a 10 μM solution of BCECF was added and the cells were incubated for 30 minutes at 37° C. Following this incubation, BCECF was replaced with PBS and the plate read for fluorescence in a Millipore cytofluorometer. Data obtained was plotted as a percent of control versus concentration of inventive compound tested. FIGS. 3 and 5 represent the results of this viability assay, for compounds nos. 3556 and 4500, respectively.
# Balb/3T3 cells [5] = assay: PDGF-induced proliferation of Balb/3T3 cells (tritiated thymidine); format: cell-based; conditions: Mus musculus, BALB/3T3, 24 h; PDGF-stimulated; FIGS. 2 and 4; read-out: concentrations inhibiting proliferation of Balb/3T3 cells stimulated by PDGF
# Description: Disregulated PDGF-proliferative response has been linked to a variety of diseases, including, e.g., restenosis, atherosclerosis, fibrosis, and tumor cell angiogenesis. Balb/3T3 cells respond vigorously to PDGF stimulation, and are useful in vitro models for further study of PDGF-induced proliferation.
# Balb/3T3 cells were plated in low serum-containing medium for 24 hours prior to stimulation with various concentrations of inventive compounds nos. 3556 and 4500. PDGF was added at varying concentrations along with tritiated thymidine. The cells were allowed to incubate for one day, following addition of PDGF and thymidine. Twenty-four hours later, the cells were harvested and counted by liquid scintillation counting. FIGS. 2 and 4 report data for inventive compounds nos. 3556 and 4500, respectively, obtained in this proliferation assay. The results shown in each respective figure illustrate that inventive compounds nos.
# JR-CSF strain of HIV-1 = assay: HIV-1 JR-CSF infection of human peripheral blood lymphocytes (p24 antigen ELISA); format: cell-based; conditions: JR-CSF HIV-1, FIG. 22
# Description: 3556, to prevent promotion of fresh isolates of JR-CSF strain of HIV-1 infection of human peripheral blood lymphocytes (PBL).
# In a protocol for infecting a PBL cell suspension, JR-CSF HIV-1 was clarified at low-speed centrifugation (2,000-3,000 rpm) or filtration and stored in aliquots at -70° C. To maintain consistent titers, HIV-1 aliquots were not subjected to repeated freezing and thawing and any remainder was discarded. Virus aliquots were thawed at room temperature or under cold running water for more rapid thawing and maintained in ice after thawing. Just prior to infection of PBL cells, the supernatant or dilution were warmed to room temperature.
# Human PBL cells taken from a suitable donor were centrifuged down at 1000 rpm for 5-10 minutes at room temperature. While cells were spinning, the virus inoculum was prepared in medium by adding 10 μg/ml Polybrene®. The centrifuged cells were resuspended in virus inoculum, using 1 ml of virus inoculum per 10^7 cells. A more efficient HIV-1 infection is obtained with smaller amounts of inoculum. The cells were incubated at 37° C. in the presence of virus inoculum for 2 hours, shaking the suspension every half hour. After 2 hours, the suspension was spun down, the virus inoculum removed and the cells were washed with 10 ml of fresh media. […]
# [6] = Viability of 293-EBNA cells (alamarBlue colorimetric assay); format: cell-based; conditions: human, 293-ebna cells; alamarBlue; FIGS. 18, 20, 21; read-out: LD50, 293-EBNA cells
# Description: (§1) The effect of respective inventive compounds on the viability of 293-EBNA cells was measured by a colorimetric assay that uses the alamarBlue® dye (purchased from Alamar Biosciences, Inc.) to report cell proliferation, viability and cytotoxicity. This dye is an oxidation-reduction (Redox) indicator that changes color in response to chemical reduction of growth medium resulting from cell growth. The general procedure involves adding alamarBlue® in an amount equal to 10% of the culture volume, returning the culture to incubator for four hours, and measuring the absorbance at 570 nm after subtraction of background absorbance at 600 nm.
# 293-EBNA cells = assay: as above; format: cell-based
# Description: as §1
# [7] = system: HIV long terminal repeat (LTR) promotor; assay: Inhibition of reporter gene (alkaline phosphatase) expression directed by HIV-LTR promotor in 293-EBNA cells; format: cell-based; conditions: Human immunodeficiency virus 1; reporter gene directed by HIV-LTR promotor in 293-EBNA cells; FIGS. 17, 19, 21
# Text: This example is an assay used to measure anti-viral activity of inventive compounds nos. […] This assay is predictive of anti-viral activity for retroviruses. Specifically,a plasmid construct, pHIV.AP, using the human immunodeficiency virus (HIV) long terminal repeat (LTR) promotor [derived from pU3R-III CAT (Sodroski et al. Science, Vol. 227, page 171, 1985) to direct the expression of secreted human placental alkaline phosphatase reporter gene and an expression vector for a 72 amino acids tat protein from HIV (Frankel et al., Cell, Vol. 55, pages 1189-1193, 1988) were transfected into a tumor cell line (e.g., 293-EBNA cells). The stably transfected cells were treated with various concentrations of the inventive compounds. The expression of the alkaline phosphatase (AP) reporter gene in the individual cultures was then measured by following the change in absorbance at A405 of cell conditioned media in the presence of a suitable substrate (e.g., ortho-nitrophenol phosphate). Berger et al., Gene, Vol. 66, pages 1-10, 1988.
smiles,measurement,setting,value
O=c1[nH]cc(F)c(=O)[nH]1 [5-fluorouracil],CFU-GM in mouse femoral marrow,[1],no CFU-GM were detectable
"CC(O)CCCCn1c(=O)c2c(ncn2C)n(C)c1=O (centres unmarked) [M1, 1-(5-hydroxyhexyl)-3,7-dimethylxanthine]",chemotaxis in polymorphonuclear leukocytes,[2],enhance chemotaxis
"CC(=O)CCCCn1c(=O)c2c(ncn2C)n(C)c1=O [PTX, 1-(5-oxohexyl)-3,7-dimethylxanthine]",BMT-related complications,"[3]; co-administered PTX and GM-CSF, allogeneic bone marrow transplant patients",reduced BMT-related complications
same,TNF levels,"[3]; co-administered PTX and GM-CSF, patients undergoing allogeneic bone marrow transplant","decreased levels of tumor necrosis factor, TNF"
same,TNF levels,[3]; normal volunteers,TNF levels were higher
same,inhibition of PAPH,PAPH,blocks PAPH
same,chemotaxis in polymorphonuclear leukocytes,[2],enhance chemotaxis
"CCCCCCCCNCCCCCCCCCCCn1c(=O)c2c(ncn2C)n(C)c1=O [compound no. 3556, 1-(11-octylaminoundecyl)-3,7-dimethylxanthine]",cytotoxicity to Balb/3T3 cells,Balb/3T3 cells [4],not cytotoxic to any cells
same,minimal effective concentration,Balb/3T3 cells [5],< 30 µM
same,decrease of HIV-1 infection of PBL,JR-CSF strain of HIV-1; 1 μM,decreased infection by about two to three fold
same,HIV-1 infection of PBL,JR-CSF strain of HIV-1; 10 and 20 μM,virtually eliminated viral infection
same,CC50,[6],~12.5 µM
same,concentration at which cytotoxicity becomes significant,293-EBNA cells,> 10 µM
same,IC50,[7],~2.5 µM
